According to ChEMBL document CHEMBL6078713, “Synthesis and mechanistic studies of 4-aminoquinoline-Isatin molecular hybrids and Schiff's bases as promising antimicrobial agents” (Eur J Med Chem, 2025):
Converted amounts (≈) assume the structure as drawn. The source made the active and inactive calls. The rule behind the calls is not given here.

Columns and labels:
Pseudomonas aeruginosa [1] = test: Synergistic antibacterial activity against Pseudomonas aeruginosa MTCC 2453 assessed as fractional inhibitory concentration index incubated overnight in presence of ciprofloxacin by microdilution checkerboard assay; assay type: functional
Pseudomonas aeruginosa [2] = test: Antibacterial activity against Pseudomonas aeruginosa MTCC 2453 assessed as inhibition of bacterial growth at 200 ug/ml incubated overnight by spectrophotometry relative to control; assay type: functional
Bacillus subtilis [3] = test: Antibacterial activity against Bacillus subtilis MTCC 736 assessed as diameter of zone of inhibition at MIC incubated overnight by disk diffusion method; assay type: functional
Salmonella typhi [4] = test: Ratio of MBC for antibacterial activity against Salmonella typhi to MIC for bactericidal activity against Salmonella typhi; assay type: functional, Salmonella enterica subsp. enterica serovar Typhi
Enterococcus faecalis [5] = test: Antibacterial activity against Enterococcus faecalis MTCC 439 assessed as inhibition of bacterial growth at 200 ug/ml incubated overnight by spectrophotometry relative to control; assay type: functional
Escherichia coli [6] = test: Ratio of MBC for antibacterial activity against Escherichia coli MTCC 443 to MIC for bactericidal activity against Escherichia coli MTCC 443; assay type: functional
Enterococcus faecalis [7] = test: Antibacterial activity against Enterococcus faecalis MTCC 439 assessed as diameter of zone of inhibition at 2 times MIC incubated overnight by disk diffusion method; assay type: functional
Bacillus subtilis [8] = test: Antibacterial activity against Bacillus subtilis MTCC 736 assessed as inhibition of bacterial growth at 200 ug/ml incubated overnight by spectrophotometry relative to control; assay type: functional
Salmonella typhi [9] = test: Synergistic antibacterial activity against Salmonella typhi assessed as inhibition of bacterial growth incubated overnight in presence of ciprofloxacin by serial dilution based spectrophotometer; assay type: functional, Salmonella enterica subsp. enterica serovar Typhi; settings: Salmonella enterica
Escherichia coli [10] = test: Antibacterial activity against Escherichia coli MTCC 443 assessed as diameter of zone of inhibition at 2 times MIC incubated overnight by disk diffusion method; assay type: functional
Staphylococcus aureus [11] = test: Antibacterial activity against Staphylococcus aureus MTCC 902 assessed as inhibition of bacterial growth at 200 ug/ml incubated overnight by spectrophotometry relative to control; assay type: functional
Bacillus subtilis [12] = test: Bactericidal activity against Bacillus subtilis MTCC 736 assessed as inhibition of bacterial growth incubated overnight; assay type: functional
Pseudomonas aeruginosa [13] = test: Antibacterial activity against Pseudomonas aeruginosa MTCC 2453 assessed as diameter of zone of inhibition at MIC incubated overnight by disk diffusion method; assay type: functional
Pseudomonas aeruginosa [14] = test: Antibacterial activity against Pseudomonas aeruginosa MTCC 2453 assessed as diameter of zone of inhibition at 2 times MIC incubated overnight by disk diffusion method; assay type: functional
Escherichia coli [15] = test: Antibacterial activity against Escherichia coli clinical isolate ECJH15 assessed as diameter of zone of inhibition by disk diffusion assay; assay type: functional
Escherichia coli [16] = test: Antibacterial activity against Escherichia coli clinical isolate ECJH12 assessed as diameter of zone of inhibition by disk diffusion assay; assay type: functional
Escherichia coli [17] = test: Antibacterial activity against Escherichia coli clinical isolate ECJH4 assessed as diameter of zone of inhibition by disk diffusion assay; assay type: functional
Escherichia coli [18] = test: Antibacterial activity against Escherichia coli clinical isolate ECJH6 assessed as diameter of zone of inhibition by disk diffusion assay; assay type: functional
Escherichia coli [19] = test: Antibacterial activity against Escherichia coli clinical isolate ECJH2 assessed as diameter of zone of inhibition by disk diffusion assay; assay type: functional
Escherichia coli [20] = test: Antibacterial activity against Escherichia coli clinical isolate ECJH18 assessed as diameter of zone of inhibition by disk diffusion assay; assay type: functional
Escherichia coli [21] = test: Antibacterial activity against Escherichia coli clinical isolate ECJH19 assessed as diameter of zone of inhibition by disk diffusion assay; assay type: functional
Escherichia coli [22] = test: Bacteriostatic activity against Escherichia coli MTCC 443 assessed as reduction in bacterial growth at 0.5 to 2 times MIC measured upto 24 hrs by absorbance based assay; assay type: functional, organism-based
Escherichia coli [23] = test: Antibacterial activity against Escherichia coli clinical isolate ECJH17 assessed as diameter of zone of inhibition by disk diffusion assay; assay type: functional
Bacillus subtilis [24] = test: Antibacterial activity against Bacillus subtilis MTCC 736 assessed as diameter of zone of inhibition at 0.5 times MIC incubated overnight by disk diffusion method; assay type: functional
Escherichia coli [25] = test: Antibacterial activity against Escherichia coli clinical isolate ECJH10 assessed as diameter of zone of inhibition by disk diffusion assay; assay type: functional
Escherichia coli [26] = test: Antibacterial activity against Escherichia coli clinical isolate ECJH8 assessed as diameter of zone of inhibition by disk diffusion assay; assay type: functional
Escherichia coli [27] = test: Antibacterial activity against Escherichia coli clinical isolate ECJH25 assessed as diameter of zone of inhibition by disk diffusion assay; assay type: functional
[28] = Hemolytic activity in human RBC assessed as hemolysis at 1000 ug/ml incubated for 1 hr by absorbance based analysis; assay type: toxicity, cell-based, Erythrocyte; settings: red blood cells (RBC), at 1000 µg/mL, read-out: Activity
Escherichia coli [29] = test: Antibacterial activity against Escherichia coli clinical isolate ECJH23 assessed as diameter of zone of inhibition by disk diffusion assay; assay type: functional
Escherichia coli [30] = test: Antibacterial activity against Escherichia coli clinical isolate ECJH22 assessed as diameter of zone of inhibition by disk diffusion assay; assay type: functional
Escherichia coli [31] = test: Antibacterial activity against Escherichia coli clinical isolate ECJH14 assessed as diameter of zone of inhibition by disk diffusion assay; assay type: functional
Escherichia coli [32] = test: Antibacterial activity against Escherichia coli clinical isolate ECJH21 assessed as diameter of zone of inhibition by disk diffusion assay; assay type: functional
Escherichia coli [33] = test: Antibacterial activity against Escherichia coli clinical isolate ECJH5 assessed as diameter of zone of inhibition by disk diffusion assay; assay type: functional
Escherichia coli [34] = test: Antibacterial activity against Escherichia coli clinical isolate ECJH1 assessed as diameter of zone of inhibition by disk diffusion assay; assay type: functional
Pseudomonas aeruginosa [35] = test: Antibacterial activity against Pseudomonas aeruginosa MTCC 2453 assessed as diameter of zone of inhibition at 0.5 times MIC incubated overnight by disk diffusion method; assay type: functional
Escherichia coli [36] = test: Antibacterial activity against Escherichia coli clinical isolate ECJH9 assessed as diameter of zone of inhibition by disk diffusion assay; assay type: functional
Escherichia coli [37] = test: Antibacterial activity against Escherichia coli clinical isolate ECJH20 assessed as diameter of zone of inhibition by disk diffusion assay; assay type: functional
Escherichia coli [38] = test: Antibacterial activity against Escherichia coli clinical isolate ECJH16 assessed as diameter of zone of inhibition by disk diffusion assay; assay type: functional
Escherichia coli [39] = test: Antibacterial activity against Escherichia coli clinical isolate ECJH7 assessed as diameter of zone of inhibition by disk diffusion assay; assay type: functional
[40] = Hemolytic activity in human RBC assessed as hemolysis upto 500 ug/ml incubated for 1 hr by absorbance based analysis; assay type: toxicity, cell-based, Erythrocyte; settings: red blood cells (RBC), up to 500 µg/mL, read-out: Activity
Escherichia coli [41] = test: Antibacterial activity against Escherichia coli clinical isolate ECJH13 assessed as diameter of zone of inhibition by disk diffusion assay; assay type: functional
Staphylococcus aureus [42] = test: Bacteriostatic activity against Staphylococcus aureus MTCC 902 assessed as reduction in bacterial growth at 0.5 to 2 times MIC measured upto 24 hrs by absorbance based assay; assay type: functional, organism-based
Escherichia coli [43] = test: Antibacterial activity against Escherichia coli clinical isolate ECJH24 assessed as diameter of zone of inhibition by disk diffusion assay; assay type: functional
Staphylococcus aureus [44] = test: Antibacterial activity against Staphylococcus aureus MTCC 902 assessed as diameter of zone of inhibition at 0.5 times MIC incubated overnight by disk diffusion method; assay type: functional
Escherichia coli [45] = test: Antibacterial activity against Escherichia coli clinical isolate ECJH3 assessed as diameter of zone of inhibition by disk diffusion assay; assay type: functional

Compound: Clc1ccc2c(NCC/N=C/c3ccc4ccccc4n3)ccnc2c1
- fractional inhibitory concentration index (FICI) (Pseudomonas aeruginosa [1]): 1.25
- inhibition at 200 µg/mL (Pseudomonas aeruginosa [2]): 100%
- diameter of the inhibition zone (DIZ) (Bacillus subtilis [3]): 6 mm
- Ratio (Salmonella typhi [4]): 1
- inhibition at 200 µg/mL (Enterococcus faecalis [5]): 100%
- Ratio (Escherichia coli [6]): 1
- diameter of the inhibition zone (DIZ) (Enterococcus faecalis [7]): 7 mm
- inhibition at 200 µg/mL (Bacillus subtilis [8]): 100%
- MIC (Salmonella typhi [9]): 4 µg/mL
- diameter of the inhibition zone (DIZ) (Escherichia coli [10]): 12 mm
- inhibition at 200 µg/mL (Staphylococcus aureus [11]): 100%
- MBC (Bacillus subtilis [12]): 512 µg/mL (≈ 1420 µM)
- diameter of the inhibition zone (DIZ) (Pseudomonas aeruginosa [13]): 6 mm
- diameter of the inhibition zone (DIZ) (Pseudomonas aeruginosa [14]): 8 mm

Compound: O=[N+]([O-])c1ccccc1/C=N/CCNc1ccnc2cc(Cl)ccc12
- fractional inhibitory concentration index (FICI) (Pseudomonas aeruginosa [1]): 1.5
- diameter of the inhibition zone (DIZ) (Escherichia coli [15]): 11 mm
- diameter of the inhibition zone (DIZ) (Escherichia coli [16]): 12 mm
- diameter of the inhibition zone (DIZ) (Escherichia coli [17]): 13 mm
- diameter of the inhibition zone (DIZ) (Escherichia coli [18]): 10 mm
- diameter of the inhibition zone (DIZ) (Bacillus subtilis [3]): 9 mm
- Ratio (Salmonella typhi [4]): 1
- diameter of the inhibition zone (DIZ) (Escherichia coli [19]): 11 mm
- Ratio (Escherichia coli [6]): 1
- diameter of the inhibition zone (DIZ) (Escherichia coli [20]): 11 mm
- diameter of the inhibition zone (DIZ) (Escherichia coli [21]): 10 mm
- Activity (Escherichia coli [22]): Active
- diameter of the inhibition zone (DIZ) (Escherichia coli [23]): 8 mm
- diameter of the inhibition zone (DIZ) (Bacillus subtilis [24]): 8 mm
- diameter of the inhibition zone (DIZ) (Escherichia coli [25]): 11 mm
- diameter of the inhibition zone (DIZ) (Enterococcus faecalis [7]): 12 mm
- diameter of the inhibition zone (DIZ) (Escherichia coli [26]): 9 mm
- diameter of the inhibition zone (DIZ) (Escherichia coli [27]): 11 mm
- hemolysis at 1 h, 1000 ug/ml [28]: < 20%
- MIC (Salmonella typhi [9]): 1 µg/mL
- diameter of the inhibition zone (DIZ) (Escherichia coli [29]): 11 mm
- diameter of the inhibition zone (DIZ) (Escherichia coli [10]): 9 mm
- diameter of the inhibition zone (DIZ) (Escherichia coli [30]): 9 mm
- diameter of the inhibition zone (DIZ) (Escherichia coli [31]): 12 mm
- diameter of the inhibition zone (DIZ) (Escherichia coli [32]): 8 mm
- diameter of the inhibition zone (DIZ) (Escherichia coli [33]): 12 mm
- diameter of the inhibition zone (DIZ) (Escherichia coli [34]): 11 mm
- MBC (Bacillus subtilis [12]): 128 µg/mL (≈ 361 µM)
- diameter of the inhibition zone (DIZ) (Pseudomonas aeruginosa [35]): 7 mm
- diameter of the inhibition zone (DIZ) (Escherichia coli [36]): 10 mm
- diameter of the inhibition zone (DIZ) (Escherichia coli [37]): 10 mm
- diameter of the inhibition zone (DIZ) (Pseudomonas aeruginosa [13]): 8 mm
- diameter of the inhibition zone (DIZ) (Escherichia coli [38]): 10 mm
- diameter of the inhibition zone (DIZ) (Escherichia coli [39]): 10 mm
- hemolysis at 1 h [40]: < 10%
- diameter of the inhibition zone (DIZ) (Pseudomonas aeruginosa [14]): 11 mm
- diameter of the inhibition zone (DIZ) (Escherichia coli [41]): 11 mm
- Activity (Staphylococcus aureus [42]): Active
- diameter of the inhibition zone (DIZ) (Escherichia coli [43]): 13 mm
- diameter of the inhibition zone (DIZ) (Staphylococcus aureus [44]): 8 mm
- diameter of the inhibition zone (DIZ) (Escherichia coli [45]): 10 mm
